According to US9096560B2, “5-heterocyclylalkyl-3-hydroxy-2-phenylcyclopent-2-enones as herbicides” (Syngenta Limited, priority 2008, dated 2015):

Legend:
Type in all cases: in vivo
[1] = test system: Echinochloa crus-galli (ECHCG); experiment: Example A post-emergence herbicidal test, ECHCG; conditions: evaluated 14 or 15 days after spraying
Experimental: (§1) Seeds of a variety of test species were sown in standard soil in pots. After cultivation for one day (pre-emergence) or after 10 days cultivation (post-emergence) under controlled conditions in a glasshouse, the plants were sprayed with an aqueous spray solution derived from the formulation of the technical active ingredient in 0.6 ml acetone and 45 ml formulation solution containing 10.6% Emulsogen EL (Registry number 61791-12-6), 42.2% N-methylpyrrolidone, 42.2% dipropylene glycol monomethyl ether (Registry number 34590-94-8) and 0.2% X-77 (Registry number 11097-66-8). The test plants were then grown in a greenhouse under optimum conditions until, 14 or 15 days later for post-emergence and 19 or 20 days for pre-emergence, the test was evaluated (100=total damage to plant; 0=no damage to plant). Alopecurus myosuroides (ALOMY), Avena fatua (AVEFA), Lolium perenne (LOLPE), Setaria faberi (SETFA), Digitaria sanguinalis (DIGSA), Echinochloa crus-galli (ECHCG) Post-Emergence Activity

[2] = test system: Digitaria sanguinalis (DIGSA); experiment: Example A post-emergence herbicidal test, DIGSA; conditions: evaluated 14 or 15 days after spraying
Experimental: as §1

[3] = test system: Setaria faberi (SETFA); experiment: Example A post-emergence herbicidal test, SETFA; conditions: evaluated 14 or 15 days after spraying
Experimental: as §1

[4] = test system: Avena fatua (AVEFA); experiment: Example B pre-emergence herbicidal test, AVEFA; conditions: Avena fatua, 312 h, rate 250 g/ha, evaluated after 13 days, 100=total damage to plant, 0=no damage to plant
Outline: (§2)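 Plants were rated 13 days after treatment, 0 = no damage to 100 = total damage. They were grown in a glasshouse at 24/16 °C, 14 h light, 65% humidity and watered twice daily. Pre-emergence spray was applied one day after sowing, formulated in acetone/water 50:50 with 0.5% Tween 20.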

[5] = test system: Winter Wheat variety 'Hereward' seed treated with cloquintocet mexyl; experiment: Example C crop damage test on Winter Wheat seed treated with safener cloquintocet mexyl, post-emergence; conditions: rate 250 g/ha, seed treated with cloquintocet mexyl 0.5 grams per kilogram of dry seed, evaluated after 13 days
Experimental: Seeds of the Winter Wheat variety ‘Hereward’ were seed treated with a wettable powder formulation of the cereal herbicide safener, cloquintocet mexyl, at a rate of 0.5 grams per kilogram of dry seed prior to the initiation of glasshouse testing. One seed was sown per 1.5 inch plastic pot into a sandy loam soil at a depth of 1 cm, 8 days prior to application of the test compounds and was watered and grown under controlled conditions in a glasshouse (at 24/16° C., day/night; 14 hours light; 65% humidity). The plants were sprayed Post-emergence with an aqueous spray solution derived from the formulation of the technical active ingredient in acetone/water (50:50) solution containing 0.5% Tween 20 (polyoxyethelyene sorbitan monolaurate, CAS RN 9005-64-5). The test plants were then grown in a glasshouse under controlled conditions in a glasshouse (at 24/16° C., day/night; 14 hours light; 65% humidity) and watered twice daily. After 13 days for pre and post-emergence, the test was evaluated (100=total damage to plant; 0=no damage to plant).

[6] = test system: Lolium perenne (LOLPE); experiment: Example A post-emergence herbicidal test, LOLPE; conditions: evaluated 14 or 15 days after spraying
Experimental: as §1

[7] = test system: Alopecurus myosuroides (ALOMY); experiment: Example B post-emergence herbicidal test, ALOMY; conditions: Alopecurus myosuroides, 312 h, rate 250 g/ha, evaluated after 13 days, scale 0-100, read-out: Post-emergence activity ALOMY (100=total damage to plant; 0=no damage to plant)
Outline: (§3)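 Foliar application to 8-day-old pot-grown seedlings in a glasshouse (24/16 °C, 14 h photoperiod, 65% humidity). Spray solution was derived from an acetone/water (50:50) formulation with 0.5% Tween 20. Injury was assessed 13 days later on a 0–100 scale.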

[8] = test system: Lolium perenne (LOLPE); experiment: Example B post-emergence herbicidal test, LOLPE; conditions: Lolium perenne, 312 h, rate 250 g/ha, evaluated after 13 days, scale 0-100, read-out: Post-emergence activity LOLPE (100=total damage to plant; 0=no damage to plant)
Outline: as §3

[9] = test system: Avena fatua (AVEFA); experiment: Example A post-emergence herbicidal test, AVEFA; conditions: evaluated 14 or 15 days after spraying
Experimental: as §1

[10] = test system: Alopecurus myosuroides (ALOMY); experiment: Example A post-emergence herbicidal test, ALOMY; conditions: evaluated 14 or 15 days after spraying
Experimental: as §1

[11] = test system: Alopecurus myosuroides (ALOMY); experiment: Example B pre-emergence herbicidal test, ALOMY; conditions: Alopecurus myosuroides, 312 h, rate 250 g/ha, evaluated after 13 days, 100=total damage to plant, 0=no damage to plant
Outline: as §2

[12] = test system: Avena fatua (AVEFA); experiment: Example B post-emergence herbicidal test, AVEFA; conditions: Avena fatua, 312 h, rate 250 g/ha, evaluated after 13 days, scale 0-100, read-out: Post-emergence activity AVEFA (100=total damage to plant; 0=no damage to plant)
Outline: as §3

[13] = test system: Lolium perenne (LOLPE); experiment: Example B pre-emergence herbicidal test, LOLPE; conditions: Lolium perenne, 312 h, rate 250 g/ha, evaluated after 13 days, 100=total damage to plant, 0=no damage to plant
Outline: as §2

[14] = test system: Winter Wheat variety 'Hereward'; experiment: Example C crop damage test on Winter Wheat, post-emergence, no safener; conditions: Triticum aestivum, 312 h, rate 250 g/ha, evaluated after 13 days, read-out: Winter Wheat (Hereward) damage (100=total damage to plant; 0=no damage to plant)
Experimental: Seeds of the Winter Wheat variety ‘Hereward’ were sown in standard soil in pots. After 8 days cultivation under controlled conditions in a glasshouse (at 24/16° C., day/night; 14 hours light; 65% humidity), the plants were sprayed with an aqueous spray solution derived from the formulation of the technical active ingredient in acetone/water (50:50) solution containing 0.5% Tween 20 (polyoxyethelyene sorbitan monolaurate, CAS RN 9005-64-5). The test plants were then grown in a glasshouse under controlled conditions in a glasshouse (at 24/16° C., day/night; 14 hours light; 65% humidity) and watered twice daily. After 13 days for pre and post-emergence, the test was evaluated (100=total damage to plant; 0=no damage to plant).

[15] = test system: Echinochloa crus-galli (ECHCG); experiment: Example B post-emergence herbicidal test, ECHCG; conditions: Echinochloa crus-galli, 312 h, rate 250 g/ha, evaluated after 13 days, scale 0-100, read-out: Post-emergence activity ECHCG (100=total damage to plant; 0=no damage to plant)
Outline: as §3

[16] = test system: Echinochloa crus-galli (ECHCG); experiment: Example B pre-emergence herbicidal test, ECHCG; conditions: Echinochloa crus-galli, 312 h, rate 250 g/ha, evaluated after 13 days, 100=total damage to plant, 0=no damage to plant
Outline: as §2

[17] = test system: Setaria faberi (SETFA); experiment: Example A pre-emergence herbicidal test, SETFA; conditions: rate 500 g/ha, evaluated 19 or 20 days after spraying
Experimental: as §1, with “Pre-Emergence” for “Post-Emergence”

[18] = test system: Echinochloa crus-galli (ECHCG); experiment: Example A pre-emergence herbicidal test, ECHCG; conditions: rate 500 g/ha, evaluated 19 or 20 days after spraying
Experimental: as §1, with “Pre-Emergence” for “Post-Emergence”

[19] = test system: Alopecurus myosuroides (ALOMY); experiment: Example A pre-emergence herbicidal test, ALOMY; conditions: rate 500 g/ha, evaluated 19 or 20 days after spraying
Experimental: as §1, with “Pre-Emergence” for “Post-Emergence”

[20] = test system: Avena fatua (AVEFA); experiment: Example A pre-emergence herbicidal test, AVEFA; conditions: rate 500 g/ha, evaluated 19 or 20 days after spraying
Experimental: as §1, with “Pre-Emergence” for “Post-Emergence”

[21] = test system: Digitaria sanguinalis (DIGSA); experiment: Example A pre-emergence herbicidal test, DIGSA; conditions: rate 500 g/ha, evaluated 19 or 20 days after spraying
Experimental: as §1, with “Pre-Emergence” for “Post-Emergence”

[22] = test system: Lolium perenne (LOLPE); experiment: Example A pre-emergence herbicidal test, LOLPE; conditions: rate 500 g/ha, evaluated 19 or 20 days after spraying
Experimental: as §1, with “Pre-Emergence” for “Post-Emergence”

SMILES	Post-Emergence Activity ECHCG (100=total damage to plant; 0=no damage to plant) ([1]; rate 250 g/ha)	Post-Emergence Activity DIGSA (100=total damage to plant; 0=no damage to plant) ([2]; rate 250 g/ha)	Post-Emergence Activity SETFA (100=total damage to plant; 0=no damage to plant) ([3]; rate 250 g/ha)	pest or weed control at 250 g/ha [4]	Winter Wheat (Hereward) + cloquintocet mexyl damage (100=total damage to plant; 0=no damage to plant) [5]	Post-Emergence Activity LOLPE (100=total damage to plant; 0=no damage to plant) ([6]; rate 250 g/ha)	pest or weed control at 250 g/ha [7]	pest or weed control at 250 g/ha [8]	Post-Emergence Activity AVEFA (100=total damage to plant; 0=no damage to plant) ([9]; rate 250 g/ha)	Post-Emergence Activity ALOMY (100=total damage to plant; 0=no damage to plant) ([10]; rate 250 g/ha)	pest or weed control at 250 g/ha [11]	pest or weed control at 250 g/ha [12]	pest or weed control at 250 g/ha [13]	crop damage to winter wheat at 250 g/ha [14]	pest or weed control at 250 g/ha [15]	pest or weed control at 250 g/ha [16]	further results
Cc1cc(C)c(C2=C(OC(=O)C(C)(C)C)CC(CC3CCOCC3)C2=O)c(C)c1 (stereo not shown) [Compound P5]	100	70	80	80%	30	100	100%	100%	100	100	100%	90%	100%	60%	100%	100%	
CCc1cc(C)cc(CC)c1C1C(=O)CC(CC2CCOCC2)C1=O (stereo not shown) [Compound T1]																	Pre-Emergence Activity SETFA (100=total damage to plant; 0=no damage to plant) [17]: 70; Post-Emergence Activity ECHCG (100=total damage to plant; 0=no damage to plant) ([1]; rate 125 g/ha): 100; Post-Emergence Activity DIGSA (100=total damage to plant; 0=no damage to plant) ([2]; rate 125 g/ha): 100; Post-Emergence Activity SETFA (100=total damage to plant; 0=no damage to plant) ([3]; rate 125 g/ha): 70; Pre-Emergence Activity ECHCG (100=total damage to plant; 0=no damage to plant) [18]: 80; Post-Emergence Activity LOLPE (100=total damage to plant; 0=no damage to plant) ([6]; rate 125 g/ha): 100; Pre-Emergence Activity ALOMY (100=total damage to plant; 0=no damage to plant) [19]: 100; Pre-Emergence Activity AVEFA (100=total damage to plant; 0=no damage to plant) [20]: 90; Post-Emergence Activity AVEFA (100=total damage to plant; 0=no damage to plant) ([9]; rate 125 g/ha): 90; Pre-Emergence Activity DIGSA (100=total damage to plant; 0=no damage to plant) [21]: 100; Post-Emergence Activity ALOMY (100=total damage to plant; 0=no damage to plant) ([10]; rate 125 g/ha): 100; Pre-Emergence Activity LOLPE (100=total damage to plant; 0=no damage to plant) [22]: 100
Cc1cc(C)c(C2C(=O)CC(CC3CCOCC3)C2=O)c(C)c1 (stereo not shown) [Compound T4]	100	90	90	90%	40	100	100%	100%	90	100	100%	100%	100%	70%	100%	100%	
Cc1cc(C)c(C2C(=O)CC(CC3CCOC3)C2=O)c(C)c1 (stereo not shown) [Compound T5]	80	50	30	80%	20	100	100%	100%	80	100	100%	90%	100%	80%	100%	100%	
Cc1cc(C)c(C2C(=O)C/C(=C\C3CCOCC3)C2=O)c(C)c1 (stereo not shown) [Compound T8]	100	80	100	100%	80	100	100%	100%	90	100	100%	100%	100%	90%	100%	100%	
